Here are results for nine molecules from PubChem BioAssay AID330 (DTP/NCI, 2004).

Structures are written as SMILES. Several values for one entry are separate records, joined by “and”; a condition that tells them apart may be missing. Identical values can stand only once. Inconclusive results and toxic doses are left out.

This assay concerns P388 leukemia ip, CD2F1 mice, survival T/C. Put plainly: NCI In Vivo Anticancer Drug Screen. Data for tumor model P388 Leukemia (intraperitoneal) in CD2F1 (CDF1) mice. The settings on record: endpoint: median survival time, higher = longer survival. In outline:
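Mice carrying the transplanted tumor received test compound or vehicle. Survival was recorded in each group, and the value is the treated-group measurement divided by that of the vehicle-treated control group.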

In the case of `CS(C)=O`, the T/C by setting is: (dose: 93.75 mg/kg/injection, schedule: Q01DX009 (ip), vehicle: saline) 109 % of control; (dose: 187.5 mg/kg/injection, schedule: Q01DX009 (ip), vehicle: saline) 107 % of control; (dose: 375.0 mg/kg/injection, schedule: Q01DX009 (ip), vehicle: saline) 98 % of control; (dose: 750.0 mg/kg/injection, schedule: Q01DX009 (ip), vehicle: saline) 109 % of control; (dose: 1500.0 mg/kg/injection, schedule: Q01DX009 (ip), vehicle: saline) 104 % of control; (dose: 1.5 grams/kg/injection, schedule: Q01DX001 (ip), vehicle: saline) 99 % of control and 101 % of control. Also, the T/C is 101 % of control and 109 % of control (dose: 1.5 grams/kg/injection, schedule: Q01DX009 (ip), vehicle: saline); 103 % of control and 95 % of control (dose: 2.0 % in 0.5 ml injection vol, schedule: Q01DX009 (ip), vehicle: water); 104 % of control (dose: 3000.0 mg/kg/injection, schedule: Q01DX001 (ip), vehicle: water); 95 % of control (dose: 3000.0 mg/kg/injection, schedule: Q01DX009 (ip), vehicle: saline); 104 % of control and 106 % of control (dose: 3.0 grams/kg/injection, schedule: Q01DX001 (ip), vehicle: saline); 96 % of control (dose: 3.0 grams/kg/injection, schedule: Q01DX009 (ip), vehicle: saline). Moreover, the T/C by setting is: (dose: 3.1 grams/kg/injection, schedule: Q01DX009 (ip), vehicle: water) 101 % of control; (dose: 4.0 % in 0.5 ml injection vol, schedule: Q01DX009 (ip), vehicle: water) 112 % of control and 94 % of control; (dose: 6000.0 mg/kg/injection, schedule: Q01DX001 (ip), vehicle: water) 99 % of control; (dose: 6.0 grams/kg/injection, schedule: Q01DX001 (ip), vehicle: saline) 95 % of control and 98 % of control; (dose: 6.0 grams/kg/injection, schedule: Q01DX009 (ip), vehicle: saline) 100 % of control and 106 % of control; (dose: 6.2 grams/kg/injection, schedule: Q01DX009 (ip), vehicle: water) 97 % of control. The T/C is 103 % of control (dose: 6.25 % in 0.5 ml injection vol, schedule: Q01DX009 (ip), vehicle: water); 103 % of control and 112 % of control (dose: 8.0 % in 0.5 ml injection vol, schedule: Q01DX009 (ip), vehicle: water); 101 % of control (dose: 12000.0 mg/kg/injection, schedule: Q01DX001 (ip), vehicle: water); 104 % of control and 96 % of control (dose: 12.0 grams/kg/injection, schedule: Q01DX001 (ip), vehicle: saline); 110 % of control (dose: 12.5 % in 0.5 ml injection vol, schedule: Q01DX009 (ip), vehicle: water); 108 % of control (dose: 12.5 grams/kg/injection, schedule: Q01DX009 (ip), vehicle: water). Also, the T/C (dose: 16.0 % in 0.5 ml injection vol, schedule: Q01DX009 (ip), vehicle: water) is 102 % of control and 105 % of control and 112 % of control; the T/C (dose: 24.0 grams/kg/injection, schedule: Q01DX001 (ip), vehicle: saline) was 37 % of control and 39 % of control; the T/C (dose: 25.0 % in 0.5 ml injection vol, schedule: Q01DX009 (ip), vehicle: water) is 117 % of control; the T/C (dose: 32.0 % in 0.5 ml injection vol, schedule: Q01DX009 (ip), vehicle: water) is 111 % of control and 121 % of control.

Regarding `CCCCc1[nH]nc(-c2n[nH]c(CCCC)c2C)c1C`, the T/C was 95 % of control (dose: 60.0 mg/kg/injection, schedule: Q01DX005 (ip), vehicle: saline with Tween-80); 100 % of control (dose: 120.0 mg/kg/injection, schedule: Q01DX005 (ip), vehicle: saline with Tween-80); 108 % of control (dose: 240.0 mg/kg/injection, schedule: Q01DX005 (ip), vehicle: saline with Tween-80).

`O=NN(CCCl)C(=O)Nc1c[nH]c(=O)[nH]c1=O`: the T/C runs as follows: (dose: 0.01 mg/kg/injection, schedule: Q04DX003 (ip), vehicle: saline with Tween-80) 95 % of control; (dose: 0.02 mg/kg/injection, schedule: Q04DX003 (ip), vehicle: saline with Tween-80) 100 % of control; (dose: 0.04 mg/kg/injection, schedule: Q04DX003 (ip), vehicle: saline with Tween-80) 100 % of control; (dose: 0.5 mg/kg/injection, schedule: Q04DX003 (ip), vehicle: saline) 150 % of control; (dose: 1.0 mg/kg/injection, schedule: Q04DX003 (ip), vehicle: saline) 159 % of control; (dose: 2.0 mg/kg/injection, schedule: Q04DX003 (ip), vehicle: saline) 172 % of control. Moreover, the T/C (dose: 3.0 mg/kg/injection, schedule: Q04DX003 (ip), vehicle: saline with Tween-80) is 195 % of control; the T/C (dose: 3.13 mg/kg/injection, schedule: Q01DX009 (ip), vehicle: saline with Tween-80) was 227 % of control; the T/C (dose: 6.0 mg/kg/injection, schedule: Q04DX003 (ip), vehicle: saline with Tween-80) was 213 % of control; the T/C (dose: 6.25 mg/kg/injection, schedule: Q01DX009 (ip), vehicle: saline with Tween-80) was 227 % of control; the T/C (dose: 8.0 mg/kg/injection, schedule: Q04DX003 (ip), vehicle: saline with Tween-80) is 191 % of control; the T/C (dose: 12.0 mg/kg/injection, schedule: Q04DX003 (ip), vehicle: saline with Tween-80) is 166 % of control. For the same molecule, the T/C by setting is: (dose: 12.5 mg/kg/injection, schedule: Q01DX009 (ip), vehicle: saline with Tween-80) 109 % of control; (dose: 12.5 mg/kg/injection, schedule: Q04DX003 (ip), vehicle: saline with Tween-80) 219 % of control; (dose: 18.0 mg/kg/injection, schedule: Q04DX003 (ip), vehicle: saline with Tween-80) 191 % of control; (dose: 30.0 mg/kg/injection, schedule: Q01DX009 (ip), vehicle: saline with Tween-80) 100 % of control.

In the case of `O=S(=O)(Nc1nccs1)c1ccc(NCc2c3ccccc3nc3ccccc23)cc1`, the T/C by setting is: (dose: 100.0 mg/kg/injection, schedule: Q04DX002 (ip), vehicle: Klucel (hydroxypropylcellulose) (HPC)) 101 % of control; (dose: 200.0 mg/kg/injection, schedule: Q04DX002 (ip), vehicle: Klucel (hydroxypropylcellulose) (HPC)) 100 % of control; (dose: 400.0 mg/kg/injection, schedule: Q04DX002 (ip), vehicle: Klucel (hydroxypropylcellulose) (HPC)) 105 % of control.

In the case of `c1ccc([Se][Se]c2ccccn2)nc1`, the T/C runs as follows: (dose: 6.25 mg/kg/injection, schedule: Q01DX005 (ip), vehicle: Klucel (hydroxypropylcellulose) (HPC)) 101 % of control; (dose: 12.5 mg/kg/injection, schedule: Q01DX005 (ip), vehicle: Klucel (hydroxypropylcellulose) (HPC)) 103 % of control; (dose: 25.0 mg/kg/injection, schedule: Q01DX005 (ip), vehicle: Klucel (hydroxypropylcellulose) (HPC)) 101 % of control.

On to `COc1cccc(C(=O)c2ccncc2C)c1OC`, for which the T/C is 103 % of control (dose: 12.5 mg/kg/injection, schedule: Q01DX009 (ip), vehicle: water); 102 % of control (dose: 25.0 mg/kg/injection, schedule: Q01DX009 (ip), vehicle: water); 100 % of control (dose: 50.0 mg/kg/injection, schedule: Q01DX009 (ip), vehicle: water); 97 % of control (dose: 100.0 mg/kg/injection, schedule: Q01DX009 (ip), vehicle: water); 102 % of control (dose: 200.0 mg/kg/injection, schedule: Q01DX009 (ip), vehicle: water).

With `C/C1=C\CC/C(C)=C/CC/C(C)=C/CC(C)(C)/C=C/C1`, the T/C is 112 % of control (dose: 25.0 mg/kg/injection, schedule: Q01DX009 (ip), vehicle: saline + Tween-80 + alcohol); 112 % of control (dose: 50.0 mg/kg/injection, schedule: Q01DX009 (ip), vehicle: saline + Tween-80 + alcohol); 111 % of control (dose: 100.0 mg/kg/injection, schedule: Q01DX009 (ip), vehicle: saline + Tween-80 + alcohol).

`O=C(N1CCC2(CC1)SSC1(CCN(C(=O)C(F)(F)F)CC1)S2)C(F)(F)F`: the T/C was 87 % of control (dose: 100.0 mg/kg/injection, schedule: Q04DX003 (ip), vehicle: saline with Tween-80) and 91 % of control (dose: 200.0 mg/kg/injection, schedule: Q04DX003 (ip), vehicle: saline with Tween-80).

Turning to `COc1ccc(OC)c(CC(C)N)c1` (stereo not given), the T/C by setting is: (dose: 60.0 mg/kg/injection, schedule: Q01DX005 (ip), vehicle: saline) 98 % of control; (dose: 120.0 mg/kg/injection, schedule: Q01DX005 (ip), vehicle: saline) 93 % of control.
